Here are results for five molecules from paper PMC8875555, “Discovery of Kinase and Carbonic Anhydrase Dual Inhibitors by Machine Learning Classification and Experiments” (Pharmaceuticals, 2022).

Values joined by “and” are separate entries in the source; they are usually repeats but may differ in a detail not shown here. Equal entries are not always repeated.

What is called Ki is the dissociation constant of the complex between target and ligand, obtained from inhibition or displacement. A high value points to weaker binding. The term IC50 denotes the concentration needed to halve the response being measured.

The target in test [1] is T1, CA I (Homo sapiens, UniProt P00915). Put plainly: CA enzyme inhibition with 4-nitrophenyl acetate as substrate. It counts as biochemical. The settings on record: converted from IC50 by Cheng-Prusoff; 5 nM enzyme, 1 mM substrate, 0.01% Triton X-100, 37 °C. The protocol: (§1) All the reagents used for the biochemical experiments for enzyme inhibitions were bought from Cayman (Ann Harbor, MI, USA), Sigma–Aldrich (St. Louis, MO, USA), Sino Biological (Beijing, China), or Tokyo Chemical Industry (Tokyo, Japan). Inhibitory activities of small molecules on CAs were measured using 4-nitrophenyl acetate as a substrate. […] The changes were measured at 96-well microplates using Epoch2 from BioTek (Winooski, VT, USA). The slope in a time-dependent measurement was calculated by linear regression and interpreted as the quantified activity. Each 200 μL reaction solution comprised 5 nM enzyme and 1 mM substrate buffered using phosphate-buffered saline containing 5% dimethyl sulfoxide and 0.01% (w/v) Triton X-100 under the absence or the presence of inhibitor. […] The substrate-only solution was used as a control to consider autohydrolysis of the substrate. The value of IC50 was converted into Ki using the Cheng–Prusoff equation [66].
T1 sequence (P00915 whole entry): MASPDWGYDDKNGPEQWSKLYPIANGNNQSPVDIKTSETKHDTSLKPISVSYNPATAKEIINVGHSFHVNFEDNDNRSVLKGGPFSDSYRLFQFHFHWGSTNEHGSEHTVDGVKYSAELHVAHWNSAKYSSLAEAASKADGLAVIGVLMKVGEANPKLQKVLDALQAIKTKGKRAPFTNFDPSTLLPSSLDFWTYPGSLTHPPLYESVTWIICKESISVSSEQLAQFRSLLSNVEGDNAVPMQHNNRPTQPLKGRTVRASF

Test [2] has as its target T2, CA II (Homo sapiens, UniProt P00918). Described as above. Particulars: converted from IC50 by Cheng-Prusoff; 5 nM enzyme, 1 mM substrate, 0.01% Triton X-100, 37 °C. In kind it is biochemical. The protocol: as §1
The target of a further test is CA IX (Homo sapiens, UniProt Q16790). Described as above. The settings on record: converted from IC50 by Cheng-Prusoff; 5 nM enzyme, 1 mM substrate, 0.01% Triton X-100, 37 °C. In kind it is biochemical. The protocol: as §1
The target of the next test is CA XII (Homo sapiens, UniProt O43570). The test is described as above. In kind it is biochemical. The protocol: as §1
Chain of CA XII (O43570 25-354): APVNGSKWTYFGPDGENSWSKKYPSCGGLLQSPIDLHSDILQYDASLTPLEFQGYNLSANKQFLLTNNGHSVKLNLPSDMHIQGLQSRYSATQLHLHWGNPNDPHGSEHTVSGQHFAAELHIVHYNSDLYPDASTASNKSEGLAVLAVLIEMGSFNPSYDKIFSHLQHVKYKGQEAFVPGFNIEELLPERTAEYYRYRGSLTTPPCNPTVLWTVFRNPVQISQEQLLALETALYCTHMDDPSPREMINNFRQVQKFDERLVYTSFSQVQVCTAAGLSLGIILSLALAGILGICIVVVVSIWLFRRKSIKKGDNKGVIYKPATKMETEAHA
Test [3] concerns the target T1, CA I. Put plainly: Differential scanning fluorimetry (DSF). Particulars: 200 µM inhibitor; for CA I ΔTm: shift from apo CA I. In kind it is binding. The protocol: (§2) The biophysical experiments involved the binding of small molecules to CA I or CA II, which were quantified using the Tm of DSF. The profile was generated by CFX-connect […] (BioRad, Hercules, CA, USA). The solution contained 5× SYPRO® Orange and 0.5 µM recombinant human CA I or CA II in the absence or presence of 200 µM inhibitor. […] The patterns were nonlinearly fitted to the Boltzmann equation to calculate Tm. […] Nonlinear curve fittings for Ki in enzyme assay and Tm in DSF were performed using MATLAB (MathWorks, Natick, MA, USA).
(DSF heats the sample and reads unfolding from a dye or from intrinsic fluorescence.)

Test [4] has as its target T2, CA II. Put plainly: Differential scanning fluorimetry (DSF). It counts as binding. Particulars: 200 µM inhibitor; for CA II ΔTm: shift from apo CA II. The protocol: as §2
The test system of a further test is CDK2. The arrangement: method as in PMID 15974571. Particulars: cited from earlier work.
The subject of a further test is SYK. Also noted: method as in PMID 12941345. The settings on record: cited from earlier work.
The next test deals with MST1. The arrangement: method as in PMID 27535619. The settings on record: cited from earlier work.
Another test deals with MST2. The arrangement: method as in PMID 27535619. The settings on record: cited from earlier work.

Turning to `Cc1ccc(Nc2nccc(N(C)c3ccc4c(C)n(C)nc4c3)n2)cc1S(N)(=O)=O` [Compound 5698, pazopanib], the Ki at CA I [1] stood at 67 ± 10 nM; on CA II [2], 242 ± 32 nM; on CA IX it was 1700 ± 500 nM; at CA XII, 800 ± 300 nM.
Turning to `Nc1nc(Nc2ccc(S(N)(=O)=O)cc2)nn1C(=O)c1c(F)cccc1F` [Compound 5932, JNJ-7706621], the Ki worked out at 207 ± 66 nM at CA I [1], […] at CA II [2], 220 ± 32 nM at CA IX and […] on CA XII. In addition, the “CA I ΔTm” value on CA I [3] is […]. The “CA II ΔTm” value at CA II [4] stood at […]. Besides, the IC50 with CDK2 was […].
For the molecule `Nc1nc(Nc2ccc(S(N)(=O)=O)cc2)nn1C(=S)Nc1c(F)cccc1F` [Compound 5946, CDK1/2 inhibitor III], the Ki at CA I [1] worked out at 258 ± 58 nM; at CA II [2], 149 ± 21 nM; on CA IX it was 100 ± 28 nM; on CA XII, 254 ± 40 nM. Moreover, the “CA II ΔTm” value on CA II [4] amounted to 3.2 degrees. The half-maximal inhibitory concentration (IC50) in the test on CDK2 is 0.5 nM.
As for `Cn1cc(/C=C2\C(=O)Nc3ccc(S(N)(=O)=O)cc32)c2ccccc21` [Compound 6046], the Ki is 60000 ± 9000 nM on CA I [1], 16000 ± 5000 nM at CA II [2], 2700 ± 300 nM on CA IX and 13000 ± 4000 nM at CA XII. In addition, the “CA I ΔTm” value at CA I [3] was 0.1 degrees. At CA II [4], the “CA II ΔTm” value was 0.2 degrees. In addition, in the test with SYK, the IC50 was […].
With `CN1C(=O)c2sccc2N(C)c2nc(Nc3ccc(S(N)(=O)=O)cc3)ncc21` [XMU-MP-1], the Ki is ~30 nM and 32 nM at CA I [1]; ~30 nM and 24 nM on CA II [2]; ~30 nM and 31 nM on CA IX; 1000 nM on CA XII. At CA XII (compared with CA I, CA II and CA IX), the “weaker in inhibiting CA XII” value is reported as “approximately 30 fold”. Moreover, the “CA I Tm” value on CA I [3] (0.5 µM CA I, enzyme alone 56.2 ± 0.1) came out at 61.9±0.2 °C. Moreover, the “CA I ΔTm” value at CA I [3] is reported as 5.7 degrees. The “CA II Tm” value on CA II [4] (0.5 µM CA II, enzyme alone 52.6 ± 0.2) is 59.9±0.2 °C. For the same molecule, the “CA II ΔTm” value on CA II [4] was 7.3 degrees. Besides, the IC50 in the test with MST1 was 71 nM; in the test with MST2 it was 31 nM.
